Numbers after ± are expanded uncertainties.
Conditions: Liquid, Ebulliometric method (Recirculating still)

SMILES	vapor or sublimation pressure (263.15 K) [kPa]	vapor or sublimation pressure (278.15 K) [kPa]	vapor or sublimation pressure (293.15 K) [kPa]	vapor or sublimation pressure (308.15 K) [kPa]	vapor or sublimation pressure (323.15 K) [kPa]
FC(F)C(F)(F)F [pentafluoroethane]	482.4 ± 1.2	782.1 ± 1.2	1205.6 ± 1.3	1773.2 ± 1.3	2531.1 ± 1.3
CCC [propane]	345.9 ± 1.2	552.7 ± 1.2	839.7 ± 1.2	1217.2 ± 1.2	1714.5 ± 1.3
FC(C(F)(F)F)C(F)(F)F [1,1,1,2,3,3,3-heptafluoropropane]	132.4 ± 1.2	235.2 ± 1.2	389.4 ± 1.2	608.3 ± 1.2	912.1 ± 1.2

From the NIST ThermoML archive (doi:10.1016/j.fluid.2009.09.008)
